Test system: CYP3A
Settings: 5 μM inhibitor; liver microsomes of RIF-pretreated TgCYP3A4/hPXR mice; 50 μM MDZ

CC(=O)N1CCN(c2ccc(OCC3COC(Cn4ccnc4)(c4ccc(Cl)cc4Cl)O3)cc2)CC1 (stereo not shown) [ketoconazole]
Inhibition of CYP3A activity: markedly inhibited

Reference: paper PMC2678901 (Drug metabolism and disposition: the biological fate of …, 2008)
